Source: the supplement of paper PMC9265050, “Inhibition of RNA Binding in SND1 Increases the Levels of miR-1-3p and Sensitizes Cancer Cells to Navitoclax” (Cancers, 2022)

Tested on: SW480
Assay: drug sensitivity score (DSS, integrated dose-response area); higher = more sensitive (stronger viability reduction); extreme values may be limits of the assay
Method in brief: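 SW480 cells stably carrying doxycycline-inducible control or SND1-targeting shRNA were treated with 0.1 µg/mL doxycycline for 7 days. Cells were then seeded at 1000 per well into 384-well plates containing 525 commercially available small-molecule inhibitors at five concentrations, and viability was measured with CellTiter-Glo after 72 h. The drug sensitivity score integrates the area under a fitted non-linear dose–response model.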

[1] = shRNA: SND1 shRNA1 (SND1 silenced)
[2] = shRNA: SND1 shRNA2 (SND1 silenced)
[3] = shRNA: control shRNA (non-targeting)

SMILES	drug sensitivity score [1]	drug sensitivity score [2]	drug sensitivity score [3]
CCN(CC)CCN(Cc1ccc(-c2ccc(C(F)(F)F)cc2)cc1)C(=O)Cn1c(SCc2ccc(F)cc2)nc(=O)c2c1CCC2 [Darapladib]	0.1 DSS	0 DSS	5.8 DSS
Cc1nc(Nc2ncc(C(=O)Nc3c(C)cccc3Cl)s2)cc(N2CCN(CCO)CC2)n1 [Dasatinib]	0.5 DSS	6.2 DSS	2.1 DSS
COc1cccc2c1C(=O)c1c(O)c3c(c(O)c1C2=O)C[C@@](O)(C(C)=O)C[C@@H]3O[C@H]1C[C@H](N)[C@H](O)[C@H](C)O1 [Daunorubicin]	9.5 DSS	7.3 DSS	10 DSS
Nc1ncn([C@H]2C[C@H](O)[C@@H](CO)O2)c(=O)n1 [Decitabine]	11 DSS	8.2 DSS	5.5 DSS
CC(=O)N(O)CCCCCNC(=O)CCC(=O)N(O)CCCCCNC(=O)CCC(=O)N(O)CCCCCN [Deferoxamine]	8 DSS	–	6.1 DSS
C[C@@H]1C[C@H]2[C@@H]3CCC4=CC(=O)C=C[C@]4(C)[C@@]3(F)[C@@H](O)C[C@]2(C)[C@@]1(O)C(=O)CO [Dexamethasone]	0 DSS	1.8 DSS	1.3 DSS
CCc1cnn2c(NCc3ccc[n+]([O-])c3)cc(N3CCCC[C@H]3CCO)nc12 [Dinaciclib]	18.1 DSS	15.8 DSS	20.1 DSS
CCN(CC)C(=S)SSC(=S)N(CC)CC [Disulfiram]	29.7 DSS	–	28.6 DSS
CC(=O)O[C@@]12CO[C@@H]1C[C@H](O)[C@@]1(C)C(=O)[C@H](O)C3=C(C)[C@@H](OC(=O)[C@H](O)[C@@H](NC(=O)OC(C)(C)C)c4ccccc4)C[C@@](O)([C@@H](OC(=O)c4ccccc4)[C@H]21)C3(C)C [Docetaxel]	18.1 DSS	16.5 DSS	19 DSS
Cc1ccc(-n2nc(C(C)(C)C)cc2NC(=O)Nc2ccc(OCCN3CCOCC3)c3ccccc23)cc1 [Doramapimod]	4.1 DSS	5.5 DSS	6 DSS
CN1CCN(c2ccc3nc(-c4c(N)c5c(F)cccc5[nH]c4=O)[nH]c3c2)CC1 [Dovitinib]	0.1 DSS	0 DSS	0 DSS
COc1cccc2c1C(=O)c1c(O)c3c(c(O)c1C2=O)C[C@@](O)(C(=O)CO)C[C@@H]3O[C@H]1C[C@H](N)[C@H](O)[C@H](C)O1 [Doxorubicin]	4.5 DSS	4.1 DSS	4.1 DSS
C[C@H](Nc1ncnc2nc[nH]c12)c1cc2cccc(Cl)c2c(=O)n1-c1ccccc1 [Duvelisib]	0.6 DSS	3 DSS	5.5 DSS
Cc1cc(Nc2cc(N3CCN(C)CC3)nc(/C=C/c3ccccc3)n2)n[nH]1 [ENMD-2076]	11.9 DSS	10.7 DSS	12 DSS
Cc1cc(C)c(CNC(=O)c2cc(-c3ccc(CN4CCOCC4)cc3)cc3c2cnn3C2CCCC2)c(=O)[nH]1 [EPZ-5687]	0 DSS	0 DSS	0 DSS
COC(=O)N[C@@H](C)CNc1nccc(-c2cn(C(C)C)nc2-c2cc(Cl)cc(NS(C)(=O)=O)c2F)n1 [Encorafenib]	0 DSS	–	1.6 DSS
Nc1ccccc1NC(=O)c1ccc(CNC(=O)OCc2cccnc2)cc1 [Entinostat]	5.3 DSS	2.6 DSS	2.8 DSS
c1cn2cc(-c3ccc4cn[nH]c4c3)nc(Nc3ccc(N4CCOCC4)cc3)c2n1 [Entospletinib]	0 DSS	0 DSS	0 DSS
CNC(=O)c1ccc(N2C(=S)N(c3ccc(C#N)c(C(F)(F)F)c3)C(=O)C2(C)C)cc1F [Enzalutamide]	0 DSS	1.3 DSS	0 DSS
Cn1cc(C2=C(c3cn(C4CCN(Cc5ccccn5)CC4)c4ccccc34)C(=O)NC2=O)c2ccccc21 [Enzastaurin]	4.1 DSS	0 DSS	1.4 DSS
NS(=O)(=O)NCCNc1nonc1/C(=N/O)Nc1ccc(F)c(Br)c1 [Epacadostat]	0 DSS	1.5 DSS	0.1 DSS
C#Cc1cccc(Nc2ncnc3cc(OCCOC)c(OCCOC)cc23)c1 [Erlotinib]	2.6 DSS	2.5 DSS	2.4 DSS
C[C@]12CC[C@@H]3c4ccc(OC(=O)N(CCCl)CCCl)cc4CC[C@H]3[C@@H]1CC[C@@H]2O [Estramustine]	0 DSS	–	0 DSS
COc1cc([C@@H]2c3cc4c(cc3[C@@H](O[C@@H]3O[C@@H]5CO[C@@H](C)O[C@H]5[C@H](O)[C@H]3O)[C@H]3COC(=O)[C@H]23)OCO4)cc(OC)c1O [Etoposide]	3.1 DSS	0.4 DSS	3.3 DSS

SMILES	drug sensitivity score [1]	drug sensitivity score [2]	drug sensitivity score [3]
CO[C@H]1C[C@@H]2CC[C@@H](C)[C@@](O)(O2)C(=O)C(=O)N2CCCC[C@H]2C(=O)O[C@H]([C@H](C)C[C@@H]2CC[C@@H](OCCO)[C@H](OC)C2)CC(=O)[C@H](C)/C=C(\C)[C@@H](O)[C@@H](OC)C(=O)[C@H](C)C[C@H](C)/C=C/C=C/C=C/1C [Everolimus]	7.5 DSS	–	0.4 DSS
C=C1C[C@@H]2[C@H](CC[C@]3(C)C(=O)CC[C@@H]23)[C@@]2(C)C=CC(=O)C=C12 [Exemestane]	3.1 DSS	3 DSS	4.6 DSS
Cc1nc(C(=O)NCC(=O)O)c(O)c2ccc(Oc3ccccc3)cc12 [FG-4592]	4.8 DSS	1 DSS	2.5 DSS
CCn1c(=O)c(-c2ccc(Cl)cc2Cl)cc2cnc(Nc3ccc(N4CCNCC4)c(F)c3)nc21 [FRAX486]	5 DSS	4.8 DSS	8.5 DSS
O=S(=O)(c1cccc2cnccc12)N1CCCNCC1 [Fasudil]	3.1 DSS	3 DSS	6 DSS
Cc1cnc(Nc2ccc(OCCN3CCCC3)cc2)nc1Nc1cccc(S(=O)(=O)NC(C)(C)C)c1 [Fedratinib]	5.8 DSS	6.5 DSS	5.8 DSS
CON(C)C(=O)N1N=C(c2cc(F)ccc2F)S[C@@]1(CCCN)c1ccccc1 [Filanesib]	16.8 DSS	16 DSS	16.7 DSS
O=C(Nc1nc2cccc(-c3ccc(CN4CCS(=O)(=O)CC4)cc3)n2n1)C1CC1 [Filgotinib]	1.5 DSS	0 DSS	3.6 DSS
CC(C)(C)NC(=O)[C@H]1CC[C@H]2[C@@H]3CC[C@H]4NC(=O)C=C[C@]4(C)[C@H]3CC[C@]12C [Finasteride]	0 DSS	0 DSS	0.4 DSS
CCCCCCCCc1ccc(CCC(N)(CO)CO)cc1 [Fingolimod]	8.5 DSS	8.9 DSS	6.6 DSS
O=c1[nH]c(=O)n([C@H]2C[C@H](O)[C@@H](CO)O2)cc1F [Floxuridine]	12.8 DSS	3 DSS	4.3 DSS
Nc1nc(F)nc2c1ncn2[C@@H]1O[C@H](CO)[C@@H](O)[C@@H]1O [Fludarabine]	1.8 DSS	3.3 DSS	4.7 DSS
O=c1[nH]cc(F)c(=O)[nH]1 [Fluorouracil]	0.5 DSS	0 DSS	1.1 DSS
CC(C)C(=O)Nc1ccc([N+](=O)[O-])c(C(F)(F)F)c1 [Flutamide]	0 DSS	0 DSS	0 DSS
COc1cc2c(Oc3ccc(NC(=O)C4(C(=O)Nc5ccc(F)cc5)CC4)cc3F)ccnc2cc1OCCCN1CCOCC1 [Foretinib]	4.1 DSS	4.2 DSS	5 DSS
COc1cc(Nc2ncc(F)c(Nc3ccc4c(n3)N(COP(=O)(O)O)C(=O)C(C)(C)O4)n2)cc(OC)c1OC [Fostamatinib]	3.4 DSS	–	2.6 DSS
C[C@]12CC[C@@H]3c4ccc(O)cc4C[C@@H](CCCCCCCCC[S+]([O-])CCCC(F)(F)C(F)(F)F)[C@H]3[C@@H]1CC[C@@H]2O (stereo partly drawn) [Fulvestrant]	0 DSS	0 DSS	1.3 DSS
O=C(NOCCO)c1ccc2cncn2c1Nc1ccc(I)cc1F [GDC-0623]	13.9 DSS	7.6 DSS	7.4 DSS
Cn1nccc1Nc1nccc(-c2ccn([C@H](CO)c3ccc(Cl)c(F)c3)c(=O)c2)n1 [GDC-0994]	5.9 DSS	0.2 DSS	5.2 DSS
CNc1nc(Nc2cn(C(C)(C)C#N)nc2C)ncc1C(F)(F)F [GNE-0877]	1.6 DSS	0 DSS	5.8 DSS
CCNc1nc(Nc2cc(F)c(C(=O)N3CCOCC3)cc2OC)ncc1C(F)(F)F [GNE-7915]	0 DSS	0 DSS	1.4 DSS
CCCc1cc(C)[nH]c(=O)c1CNC(=O)c1cc(-c2ccnc(N3CCN(C)CC3)c2)cc2c1cnn2C(C)C [GSK343]	0 DSS	0 DSS	4.5 DSS
CCCOc1ccn2c(C(C)=O)cc(-c3ccccc3S(C)(=O)=O)c2c1 [GSK2801]	0 DSS	0 DSS	0 DSS
CCOC(=O)CCNc1cc(N2CCc3ccccc3CC2)nc(-c2ccccn2)n1 [GSK-J4]	14 DSS	14.7 DSS	12.3 DSS
